Structures are written as SMILES. ≈ marks a conversion by molar mass, not a printed value.

For data set [1], the system named is Bacillus subtilis. The data set can be described thus: Genotoxicity in wild type Bacillus subtilis H17 assessed as growth inhibition. As to conditions: in vivo. It counts as toxicity, organism-based.
The nature of data set [2]: Ratio of CR50 for wild type Bacillus subtilis H17 to CR50 for recombination-deficient Bacillus subtilis M45. It counts as ADME, organism-based.
For data set [3], the system named is Bacillus subtilis. The data set can be described thus: Genotoxicity in recombination-deficient Bacillus subtilis M45 assessed as growth inhibition. Format: toxicity, organism-based. As to conditions: in vivo.

For `Cc1ccc2[nH]c(Cc3ccc(Br)cc3)nc2c1`, the results for the MIC with Bacillus subtilis [1] and in the data set on Bacillus subtilis [3] were 30 µg/mL (≈ 99.6 µM) and 125 µg/mL, respectively. Also, in data set [2], the selectivity ratio amounted to 0.49.
As for `Cc1ccc(Cc2nc3cc(N)ccc3o2)cc1`, the MIC in the data set with Bacillus subtilis [1] is 500 µg/mL (≈ 2100 µM); with Bacillus subtilis [3], 500 µg/mL. For the same molecule, the selectivity ratio in data set [2] came to 1.74.
`CCOc1ccc(Cc2nc3cc([N+](=O)[O-])ccc3o2)cc1`: the results for the MIC in the data set with Bacillus subtilis [1] and in the data set with Bacillus subtilis [3] were 500 µg/mL (≈ 1680 µM) and 500 µg/mL, respectively. Besides, in data set [2], the selectivity ratio was found to be 1.27.
Take `Nc1ccc2oc(Cc3ccc(F)cc3)nc2c1`: the figures for the MIC in the data set on Bacillus subtilis [1] and with Bacillus subtilis [3] were 500 µg/mL (≈ 2060 µM) and 500 µg/mL, respectively. Also, the selectivity ratio in data set [2] was 1.25.
With `CNc1ccc(-c2nc3ccccc3o2)cc1`, the values for the MIC in the data set with Bacillus subtilis [1] and in the data set on Bacillus subtilis [3] were 1000 µg/mL (≈ 4460 µM) and 500 µg/mL, respectively. For the same molecule, in data set [2], the selectivity ratio was 1.5.
The like results for `Cc1ccc2nc(COc3ccccc3)oc2c1` were, in that order, 1000 µg/mL (≈ 4180 µM), 1000 µg/mL and 0.93.
For the molecule `O=C(Nc1ccc2oc(-c3ccccc3)nc2c1)c1ccc(F)cc1`, the MIC in the data set on Bacillus subtilis [1] was found to be 1000 µg/mL (≈ 3010 µM); in the data set on Bacillus subtilis [3] it was 500 µg/mL. Besides, in data set [2], the selectivity ratio was 1.6.
Turning to `O=[N+]([O-])c1cc2oc(C3CCCCC3)nc2cc1Cl`, the MIC in the data set on Bacillus subtilis [1] is 500 µg/mL (≈ 1780 µM); with Bacillus subtilis [3], 500 µg/mL. In data set [2], the selectivity ratio came to 1.25.
Turning to `Clc1ccc2[nH]c(CC3CCCCC3)nc2c1`, the MIC stood at 1000 µg/mL (≈ 4020 µM) in the data set with Bacillus subtilis [1] and 500 µg/mL with Bacillus subtilis [3]. In addition, the selectivity ratio in data set [2] was determined as 0.93.
`Clc1ccc(OCc2nc3cc(Cl)ccc3o2)cc1`: the MIC came out at 500 µg/mL (≈ 1700 µM) in the data set on Bacillus subtilis [1] and 500 µg/mL in the data set with Bacillus subtilis [3]. For the same molecule, the selectivity ratio in data set [2] came out at 1.
In the case of `Cc1ccc2nc(-c3ccccc3Cl)oc2c1`, the MIC in the data set on Bacillus subtilis [1] was 125 µg/mL (≈ 513 µM); in the data set on Bacillus subtilis [3], 60 µg/mL. Also, the selectivity ratio in data set [2] was 1.85.
The like results for `Cc1ccc2oc(-c3ccccc3[N+](=O)[O-])nc2c1` were, in that order, 500 µg/mL (≈ 1970 µM), 500 µg/mL and 0.96.
The matching figures for `Nc1ccc(-c2nc3cc(Cl)ccc3o2)cc1`: 2000 µg/mL (≈ 8170 µM), 2000 µg/mL and 1.
The matching figures for `O=[N+]([O-])c1ccc2oc(-c3ccccc3)nc2c1`: 500 µg/mL (≈ 2080 µM), 500 µg/mL and 1.07.
For the molecule `O=[N+]([O-])c1cc[n+]([O-])c2ccccc12` [4-NITROQUINOLINE-1-OXIDE], the figures for the MIC in the data set with Bacillus subtilis [1] and in the data set with Bacillus subtilis [3] were 1000 µg/mL (≈ 5260 µM) and 60 µg/mL, respectively. In addition, in data set [2], the selectivity ratio worked out at 0.69.
In the case of `O=C(Cc1ccc(F)cc1)Nc1ccc2oc(Cc3ccccc3)nc2c1`, the figures for the MIC in the data set with Bacillus subtilis [1] and in the data set with Bacillus subtilis [3] were 500 µg/mL (≈ 1390 µM) and 500 µg/mL, respectively. Further, the selectivity ratio in data set [2] came to 0.58.
With `CCc1ccc(-c2nc3cc(NC(=O)Cc4ccc(Br)cc4)ccc3o2)cc1`, the MIC with Bacillus subtilis [1] was found to be 500 µg/mL (≈ 1150 µM); in the data set with Bacillus subtilis [3], 500 µg/mL. Further, the selectivity ratio in data set [2] was 0.95.
In the case of `Clc1ccc2oc(Cc3ccc(Br)cc3)nc2c1`, the MIC is 1000 µg/mL (≈ 3100 µM) in the data set on Bacillus subtilis [1] and 1000 µg/mL in the data set on Bacillus subtilis [3]. For the same molecule, in data set [2], the selectivity ratio is 1.05.
On to `Nc1ccc2oc(-c3ccc(Br)cc3)nc2c1`, for which the MIC in the data set with Bacillus subtilis [1] came to 1000 µg/mL (≈ 3460 µM); in the data set on Bacillus subtilis [3], 1000 µg/mL. In addition, the selectivity ratio in data set [2] amounted to 1.05.

For the origin of these results see ChEMBL document CHEMBL3046301, “A study on the genotoxic activities of some new benzoxazoles” (Med Chem Res, 2007).
